Experimental findings from ChEMBL document CHEMBL1909046, “DrugMatrix in vitro pharmacology data” are described below.

SMILES strings stand for the structures.

Among the targets are Cytochrome P450 2C9 (Homo sapiens, UniProt P11712); Cytochrome P450 3A4 (Homo sapiens, UniProt P08684); Cytochrome P450 2D6 (Homo sapiens, UniProt P10635); Cytochrome P450 2C19 (Homo sapiens, UniProt P33261).
In another assay the target is T1, Androgen receptor (Rattus norvegicus, UniProt P15207). Also: in other assays of this panel Not Active means under 50% inhibition at 10 µM.
T1 sequence (P15207 whole entry): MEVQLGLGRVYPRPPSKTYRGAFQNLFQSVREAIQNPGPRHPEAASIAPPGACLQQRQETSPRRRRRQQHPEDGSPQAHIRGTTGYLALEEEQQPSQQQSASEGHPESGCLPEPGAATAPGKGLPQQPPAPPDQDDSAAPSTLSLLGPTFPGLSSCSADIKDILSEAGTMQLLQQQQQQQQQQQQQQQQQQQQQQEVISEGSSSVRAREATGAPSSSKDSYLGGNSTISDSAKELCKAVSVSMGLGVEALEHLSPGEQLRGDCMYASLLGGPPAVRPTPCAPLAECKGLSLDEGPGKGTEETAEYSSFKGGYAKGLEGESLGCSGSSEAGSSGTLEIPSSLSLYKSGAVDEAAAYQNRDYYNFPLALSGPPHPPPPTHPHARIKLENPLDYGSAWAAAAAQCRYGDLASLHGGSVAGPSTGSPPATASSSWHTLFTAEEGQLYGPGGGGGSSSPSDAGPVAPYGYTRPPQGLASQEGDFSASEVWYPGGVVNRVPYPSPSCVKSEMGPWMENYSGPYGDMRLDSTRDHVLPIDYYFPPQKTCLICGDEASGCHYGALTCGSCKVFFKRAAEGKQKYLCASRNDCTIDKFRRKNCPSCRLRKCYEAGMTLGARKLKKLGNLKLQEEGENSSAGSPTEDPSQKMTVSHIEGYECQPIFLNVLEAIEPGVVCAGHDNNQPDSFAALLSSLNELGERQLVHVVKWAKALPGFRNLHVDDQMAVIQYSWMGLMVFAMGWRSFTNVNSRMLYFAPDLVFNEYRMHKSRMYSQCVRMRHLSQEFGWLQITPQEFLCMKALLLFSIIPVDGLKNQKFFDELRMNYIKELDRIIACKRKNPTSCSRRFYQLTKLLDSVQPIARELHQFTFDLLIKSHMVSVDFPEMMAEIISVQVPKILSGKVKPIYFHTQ

Assay [1] has as its target T2, Cholecystokinin receptor type A (Homo sapiens, UniProt P32238). Also: in other assays of this panel Not Active means under 50% inhibition at 10 µM.
T2 sequence (P32238 whole entry): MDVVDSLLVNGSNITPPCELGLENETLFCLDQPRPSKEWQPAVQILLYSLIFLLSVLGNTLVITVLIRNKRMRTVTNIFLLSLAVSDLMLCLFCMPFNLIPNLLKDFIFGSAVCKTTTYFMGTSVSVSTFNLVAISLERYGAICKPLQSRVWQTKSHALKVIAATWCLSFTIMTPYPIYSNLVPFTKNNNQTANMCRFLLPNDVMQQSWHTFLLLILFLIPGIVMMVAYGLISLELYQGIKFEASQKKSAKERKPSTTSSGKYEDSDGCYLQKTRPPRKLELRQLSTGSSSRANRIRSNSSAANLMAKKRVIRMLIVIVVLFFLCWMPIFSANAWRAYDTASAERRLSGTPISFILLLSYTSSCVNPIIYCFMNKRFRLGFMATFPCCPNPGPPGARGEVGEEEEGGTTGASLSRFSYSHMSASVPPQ
It counts as cell membranes, Membrane. The following applies: 1321-n1.

In assay [2] the target is Matrix metalloproteinase-9 (Homo sapiens, UniProt P14780). As to the kind of experiment: biochemical. It counts as cell-based.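 Also: inhibition of isolated MMP-9 enzyme activity toward a synthetic peptide substrate, from the DrugMatrix protease screening panel; in other assays of this panel Not Active means under 50% inhibition at 10 µM.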
Assay [3] deals with Mitogen-activated protein kinase 1 (Homo sapiens, UniProt P28482). As to the kind of experiment: DRUGMATRIX: Protein Serine/Threonine Kinase, ERK2 enzyme inhibition (substrate: Myelin Basic Protein). Details: species or system Escherichia coli. The following applies: Not Active = under 50% inhibition at 10 µM.
Assay [4] addresses Voltage-gated inwardly rectifying potassium channel KCNH2 (Homo sapiens, UniProt Q12809).
A further assay has as its target T3, Glucocorticoid receptor (Homo sapiens, UniProt P04150). Also: in other assays of this panel Not Active means under 50% inhibition at 10 µM.
T3 sequence (P04150 whole entry): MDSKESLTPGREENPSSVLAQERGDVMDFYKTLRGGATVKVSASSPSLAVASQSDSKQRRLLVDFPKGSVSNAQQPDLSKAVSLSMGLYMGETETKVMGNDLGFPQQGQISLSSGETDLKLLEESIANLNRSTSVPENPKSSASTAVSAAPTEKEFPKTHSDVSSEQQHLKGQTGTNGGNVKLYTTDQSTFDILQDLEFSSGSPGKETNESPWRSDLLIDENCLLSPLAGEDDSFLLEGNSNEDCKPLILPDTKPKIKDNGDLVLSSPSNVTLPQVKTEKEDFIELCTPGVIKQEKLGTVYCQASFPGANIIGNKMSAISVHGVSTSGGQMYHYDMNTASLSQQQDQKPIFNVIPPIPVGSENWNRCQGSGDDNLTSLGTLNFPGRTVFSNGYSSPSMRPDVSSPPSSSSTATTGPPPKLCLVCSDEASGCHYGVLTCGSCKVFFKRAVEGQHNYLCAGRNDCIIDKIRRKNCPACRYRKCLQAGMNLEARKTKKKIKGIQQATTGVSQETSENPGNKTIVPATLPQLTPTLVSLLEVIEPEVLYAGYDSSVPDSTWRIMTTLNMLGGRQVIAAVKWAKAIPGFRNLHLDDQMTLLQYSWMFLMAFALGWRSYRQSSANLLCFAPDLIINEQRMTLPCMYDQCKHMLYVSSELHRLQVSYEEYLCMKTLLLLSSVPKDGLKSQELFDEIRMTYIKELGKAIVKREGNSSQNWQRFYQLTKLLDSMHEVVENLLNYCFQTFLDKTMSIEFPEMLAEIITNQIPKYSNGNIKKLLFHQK
As to the kind of experiment: biochemical.
For Ki in this document: in other assays of this panel Not Active means under 50% inhibition at 10 µM.

Sequence of Cytochrome P450 2C9 (P11712 whole entry): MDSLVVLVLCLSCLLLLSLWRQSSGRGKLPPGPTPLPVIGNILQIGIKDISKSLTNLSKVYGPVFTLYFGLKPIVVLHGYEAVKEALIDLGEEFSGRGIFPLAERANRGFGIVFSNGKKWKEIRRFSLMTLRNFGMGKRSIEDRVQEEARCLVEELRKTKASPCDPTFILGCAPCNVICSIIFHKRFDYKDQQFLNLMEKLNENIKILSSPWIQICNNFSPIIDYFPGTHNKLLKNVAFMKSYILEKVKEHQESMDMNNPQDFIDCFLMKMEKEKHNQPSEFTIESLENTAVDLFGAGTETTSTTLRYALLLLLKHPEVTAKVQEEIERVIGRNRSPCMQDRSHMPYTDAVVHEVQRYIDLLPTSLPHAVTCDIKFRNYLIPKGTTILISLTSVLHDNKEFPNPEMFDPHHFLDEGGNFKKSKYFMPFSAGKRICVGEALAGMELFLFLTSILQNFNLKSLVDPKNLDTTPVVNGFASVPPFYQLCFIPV
Sequence of Matrix metalloproteinase-9 (P14780 whole entry): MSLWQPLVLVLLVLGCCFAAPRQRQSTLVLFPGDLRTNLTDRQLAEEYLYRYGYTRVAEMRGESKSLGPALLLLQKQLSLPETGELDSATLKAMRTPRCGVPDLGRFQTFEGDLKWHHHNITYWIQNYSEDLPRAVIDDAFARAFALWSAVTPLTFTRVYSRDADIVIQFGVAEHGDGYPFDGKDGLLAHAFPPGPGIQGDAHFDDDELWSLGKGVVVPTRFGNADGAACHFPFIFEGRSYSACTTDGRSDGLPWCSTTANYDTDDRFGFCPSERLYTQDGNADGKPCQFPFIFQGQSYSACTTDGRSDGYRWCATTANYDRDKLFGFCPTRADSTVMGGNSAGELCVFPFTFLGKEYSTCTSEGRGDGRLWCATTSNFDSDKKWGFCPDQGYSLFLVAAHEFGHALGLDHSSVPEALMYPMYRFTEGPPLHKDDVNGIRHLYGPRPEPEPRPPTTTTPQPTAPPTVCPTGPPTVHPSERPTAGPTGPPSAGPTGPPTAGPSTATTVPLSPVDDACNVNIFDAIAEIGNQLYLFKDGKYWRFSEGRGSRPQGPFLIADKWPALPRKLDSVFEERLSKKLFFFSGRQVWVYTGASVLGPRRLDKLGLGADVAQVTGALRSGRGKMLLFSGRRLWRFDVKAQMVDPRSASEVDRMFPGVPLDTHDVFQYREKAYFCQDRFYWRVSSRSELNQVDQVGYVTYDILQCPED
Sequence of Mitogen-activated protein kinase 1 (P28482 whole entry): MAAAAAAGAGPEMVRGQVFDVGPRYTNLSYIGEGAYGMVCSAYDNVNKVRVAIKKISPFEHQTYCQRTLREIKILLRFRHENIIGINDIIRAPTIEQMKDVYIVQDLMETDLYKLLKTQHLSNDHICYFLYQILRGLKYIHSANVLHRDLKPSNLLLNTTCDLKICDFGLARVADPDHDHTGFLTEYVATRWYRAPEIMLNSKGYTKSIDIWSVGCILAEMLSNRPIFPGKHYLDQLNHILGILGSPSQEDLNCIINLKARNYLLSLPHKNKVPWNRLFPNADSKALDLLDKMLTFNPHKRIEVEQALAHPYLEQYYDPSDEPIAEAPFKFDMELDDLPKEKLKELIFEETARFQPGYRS
Sequence of Cytochrome P450 2C19 (P33261 whole entry): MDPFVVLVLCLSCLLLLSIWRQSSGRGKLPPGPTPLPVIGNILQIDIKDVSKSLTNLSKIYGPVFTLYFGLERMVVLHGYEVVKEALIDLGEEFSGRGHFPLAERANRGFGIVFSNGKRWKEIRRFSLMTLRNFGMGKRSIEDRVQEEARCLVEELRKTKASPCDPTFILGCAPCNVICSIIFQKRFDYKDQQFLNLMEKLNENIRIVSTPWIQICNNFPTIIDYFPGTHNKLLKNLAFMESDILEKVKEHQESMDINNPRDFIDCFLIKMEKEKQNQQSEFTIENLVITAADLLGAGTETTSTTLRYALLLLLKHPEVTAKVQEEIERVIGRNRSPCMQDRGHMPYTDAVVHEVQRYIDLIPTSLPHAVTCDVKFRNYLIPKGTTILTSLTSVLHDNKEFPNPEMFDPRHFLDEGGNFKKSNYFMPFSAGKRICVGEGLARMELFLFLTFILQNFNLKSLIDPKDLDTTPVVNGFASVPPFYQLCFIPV
Sequence of Cytochrome P450 3A4 (P08684 whole entry): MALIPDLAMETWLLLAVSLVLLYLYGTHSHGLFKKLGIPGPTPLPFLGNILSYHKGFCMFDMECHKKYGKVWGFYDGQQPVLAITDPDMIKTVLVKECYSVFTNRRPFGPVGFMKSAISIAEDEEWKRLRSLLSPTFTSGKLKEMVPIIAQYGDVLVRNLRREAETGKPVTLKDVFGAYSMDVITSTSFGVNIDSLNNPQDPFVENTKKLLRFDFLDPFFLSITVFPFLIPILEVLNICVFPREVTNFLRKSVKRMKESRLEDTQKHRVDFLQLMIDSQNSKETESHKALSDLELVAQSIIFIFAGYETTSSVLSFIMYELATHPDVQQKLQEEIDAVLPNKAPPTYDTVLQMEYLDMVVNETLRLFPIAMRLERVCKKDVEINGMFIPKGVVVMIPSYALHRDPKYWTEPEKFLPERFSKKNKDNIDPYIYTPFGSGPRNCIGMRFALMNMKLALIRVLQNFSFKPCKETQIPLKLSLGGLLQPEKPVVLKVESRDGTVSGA
Sequence of Voltage-gated inwardly rectifying potassium channel KCNH2 (Q12809 whole entry): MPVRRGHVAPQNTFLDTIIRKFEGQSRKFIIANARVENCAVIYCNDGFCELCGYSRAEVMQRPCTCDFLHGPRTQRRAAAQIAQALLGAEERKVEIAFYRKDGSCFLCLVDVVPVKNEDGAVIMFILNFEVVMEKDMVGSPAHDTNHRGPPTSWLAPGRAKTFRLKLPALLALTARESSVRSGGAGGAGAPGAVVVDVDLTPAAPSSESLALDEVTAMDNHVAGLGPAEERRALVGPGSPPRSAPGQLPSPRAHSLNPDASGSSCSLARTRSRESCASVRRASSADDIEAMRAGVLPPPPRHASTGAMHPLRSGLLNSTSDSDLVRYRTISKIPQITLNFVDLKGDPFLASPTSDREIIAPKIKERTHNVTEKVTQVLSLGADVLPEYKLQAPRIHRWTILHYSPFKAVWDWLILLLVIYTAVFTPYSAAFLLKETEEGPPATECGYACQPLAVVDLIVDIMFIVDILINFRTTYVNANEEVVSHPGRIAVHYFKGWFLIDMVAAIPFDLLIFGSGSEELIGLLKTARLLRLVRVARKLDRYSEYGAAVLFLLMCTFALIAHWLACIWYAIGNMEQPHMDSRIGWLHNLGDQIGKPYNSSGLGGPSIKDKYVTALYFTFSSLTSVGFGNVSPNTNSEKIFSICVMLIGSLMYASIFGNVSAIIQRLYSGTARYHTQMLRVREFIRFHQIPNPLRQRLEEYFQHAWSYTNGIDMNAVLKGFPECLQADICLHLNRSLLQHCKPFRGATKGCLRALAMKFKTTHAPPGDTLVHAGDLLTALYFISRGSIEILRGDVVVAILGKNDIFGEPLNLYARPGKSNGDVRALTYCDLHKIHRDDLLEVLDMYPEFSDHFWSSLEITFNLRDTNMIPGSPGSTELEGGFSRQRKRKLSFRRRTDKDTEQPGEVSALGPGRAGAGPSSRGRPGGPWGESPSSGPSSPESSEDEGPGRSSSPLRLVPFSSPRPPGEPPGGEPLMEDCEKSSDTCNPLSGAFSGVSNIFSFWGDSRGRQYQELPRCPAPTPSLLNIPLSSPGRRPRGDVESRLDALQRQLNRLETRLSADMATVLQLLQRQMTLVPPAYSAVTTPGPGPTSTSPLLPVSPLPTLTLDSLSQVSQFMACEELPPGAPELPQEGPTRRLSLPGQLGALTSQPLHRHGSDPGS
Sequence of Cytochrome P450 2D6 (P10635 whole entry): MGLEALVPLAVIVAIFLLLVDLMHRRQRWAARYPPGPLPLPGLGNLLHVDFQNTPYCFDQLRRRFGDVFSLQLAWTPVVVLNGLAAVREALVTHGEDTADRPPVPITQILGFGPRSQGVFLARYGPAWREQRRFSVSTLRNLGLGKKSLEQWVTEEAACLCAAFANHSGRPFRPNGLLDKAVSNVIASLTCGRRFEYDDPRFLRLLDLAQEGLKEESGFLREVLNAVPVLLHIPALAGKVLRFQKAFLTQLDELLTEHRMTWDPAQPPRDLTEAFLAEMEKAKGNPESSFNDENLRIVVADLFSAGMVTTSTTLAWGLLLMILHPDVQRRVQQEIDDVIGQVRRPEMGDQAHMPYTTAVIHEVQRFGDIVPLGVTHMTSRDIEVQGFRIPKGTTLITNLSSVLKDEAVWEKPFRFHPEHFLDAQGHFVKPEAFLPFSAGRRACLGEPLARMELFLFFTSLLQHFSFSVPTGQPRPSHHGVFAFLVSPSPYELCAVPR

Turning to `COc1cc(N)nc2[nH]c(-c3ccc(F)cc3)c(-c3ccncc3)c12`, the concentration for half-maximal inhibition (IC50) entry against Androgen receptor was “Not Active”; in assay [1] it was “Not Active”; at Cytochrome P450 2C9, 1000 nM; at Cytochrome P450 3A4, 1000 nM; in assay [2], “Not Active”; against Cytochrome P450 2D6, 200 nM. In addition, in [3], the IC50 result is on record as “Not Active”.

With `OCCN1CCN(CCCN2c3ccccc3Sc3ccc(C(F)(F)F)cc32)CC1` [FLUPHENAZINE], the IC50 result in assay [1] was “Not Active”; in assay [2], “Not Active”; in [4] it was 5710 nM; in assay [3], “Not Active”. In assay [4], this compound showed a Ki of 4670 nM.

Consider `C=C(C)[C@H]1Cc2c(ccc3c2O[C@@H]2COc4cc(OC)c(OC)cc4[C@@H]2C3=O)O1` [ROTENONE], for which the IC50 entry on Androgen receptor is “Not Active”; in assay [1] it was “Not Active”; in assay [2], “Not Active”; against Cytochrome P450 2C19, 3650 nM; in assay [3], “Not Active”.

As to `CO[C@H]1C[C@@H]2CC[C@@H](C)[C@@](O)(O2)C(=O)C(=O)N2CCCC[C@H]2C(=O)O[C@H]([C@H](C)C[C@@H]2CC[C@@H](O)[C@H](OC)C2)CC(=O)[C@H](C)/C=C(\C)[C@@H](O)[C@@H](OC)C(=O)[C@H](C)C[C@H](C)/C=C/C=C/C=C/1C` [SIROLIMUS], the IC50 entry against Androgen receptor was “Not Active”; in [1] it was “Not Active”; against Cytochrome P450 2C9 it was 2000 nM; on Cytochrome P450 3A4, 2000 nM; in assay [2] it was “Not Active”; at Cytochrome P450 2C19 it was 4000 nM. Moreover, the IC50 result in assay [3] was “Not Active”.

For `C[C@]12CC[C@H]3[C@@H](CCC4=CC(=O)CC[C@@]43C)[C@@H]1CC[C@@H]2O` [TESTOSTERONE], the IC50 entry in [1] is “Not Active”; at Glucocorticoid receptor it was 3210 nM; in [2] it was “Not Active”; in assay [3], “Not Active”. For the same compound, at Glucocorticoid receptor, affinity was put at a Ki of 1460 nM.

`COc1cc(C(=O)NS(=O)(=O)c2ccccc2C)ccc1Cc1cn(C)c2ccc(NC(=O)OC3CCCC3)cc12` [ZAFIRLUKAST]: the IC50 entry in assay [1] was “Not Active”; on Cytochrome P450 2C9, 2260 nM; in assay [2] it was “Not Active”; in [3] (read-out: IC50), 538 nM.
